Two molecules from US20110046147A1, “17BETA-HYDROXYSTEROID DEHYDROGENASE TYPE 1 INHIBITORS FOR THE TREATMENT OF HORMONE-RELATED DISEASES” (UNIVERSITAT DES SAARLANDES, priority 2007, published 2011) can be followed below.

The test system of one data set is CaCo-2 cells. Description: CaCo2 transport assay. It is filed as in vitro ADME. The settings on record: 50 μM in donor compartment. As to the method: Performance of selected compounds in a CaCo2 assay: Caco-2 cell culture and transport experiments were performed according to Yee (Yee, S., Pharm. Res., 14(6): 763-766 (1997)), but slight modifications were introduced. The cultivation times were reduced from 21 to 10 days by increasing the sowing density from 6.3·10^4 to 1.65·10^5 cells per well. […] The initial concentration of the compounds in the donor compartment was 50 μM (in buffer with 1% ethanol or DMSO). Samples were taken from the acceptor side after 60, 120 and 180 min and from the donor side after 0 and 180 min. For glycoprotein P (P-gp) studies, bidirectional experiments were performed. The absorptive and secretory permeabilities (Papp (a-b) and Papp (b-a)) were determined. Thus, erythromycin was used as a substrate, and verapamil was used as an inhibitor of P-gp. Each experiment was performed in triplicate. The integrity of the monolayer was determined by means of TEER (transepithelial electric resistance) and the permeability for each assay was determined using Lucifer Yellow. All samples of the CaCo-2 transport experiments were analyzed by means of LC/MS/MS after dilution with buffer (1:1 with 2% acetic acid). The apparent permeability coefficient (Papp) was calculated by means of the formula given below, where dQ/dt represents the recovery rate of the mass in the acceptor compartment, A represents the surface area of the transwell membrane, and c0 represents the initial concentration in the donor compartment.
(In general: Passage across Caco-2 layers is used to estimate intestinal permeability.)

The target in a further data set is T1, CYP2C19 (Homo sapiens, UniProt P33261).
T1 construct: purchased Becton Dickinson GmbH (Heidelberg)
Description: Inhibition of hepatic CYP enzymes: CYP2C19. Type of data set: biochemical. To be noted: read-out: CYP2C19 IC50 (mean ± SD). The source says:
(§1) Drug interactions (inhibition of hepatic CYP enzymes): The inhibition of six human hepatic cytochrome P450 enzymes by selected compounds was examined by means of the kit supplied by Becton Dickinson GmbH (Heidelberg).

The target in the next data set is T2, 17β-HSD1 (Homo sapiens, UniProt P14061).
T2 construct: In both cases, human placenta served as the enzyme source; from tissue; host or cells: human placenta
T2 sequence (P14061 1-328): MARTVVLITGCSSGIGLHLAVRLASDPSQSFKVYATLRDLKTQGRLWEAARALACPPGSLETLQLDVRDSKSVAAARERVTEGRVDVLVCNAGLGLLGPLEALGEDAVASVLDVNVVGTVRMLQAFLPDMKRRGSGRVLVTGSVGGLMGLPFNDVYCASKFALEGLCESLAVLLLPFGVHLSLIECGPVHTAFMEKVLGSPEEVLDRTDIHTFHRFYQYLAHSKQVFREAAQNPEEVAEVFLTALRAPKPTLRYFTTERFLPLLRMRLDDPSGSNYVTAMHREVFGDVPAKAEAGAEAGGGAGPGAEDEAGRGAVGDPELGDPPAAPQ
The experiment in a line: Inhibition of 17β-HSD1 (estrone to estradiol, radio-HPLC). Type of data set: biochemical. The settings on record: for IC50: human placenta enzyme, 500 nM estrone, NADH 500 μM; for Selectivity IC50 (17β-HSD2)/IC50 (17β-HSD1): ratio of IC50 values.

A further data set has as its target T3, CYP3A4 (Homo sapiens, UniProt P08684).
T3 construct: purchased Becton Dickinson GmbH (Heidelberg)
The experiment in a line: Inhibition of hepatic CYP enzymes: CYP3A4. Type of data set: biochemical. To be noted: read-out: CYP3A4 IC50 (mean ± SD).
From the text: as §1

In a further data set the target is T4, CYP2D6 (Homo sapiens, UniProt P10635).
T4 construct: purchased Becton Dickinson GmbH (Heidelberg)
The experiment in a line: Inhibition of hepatic CYP enzymes: CYP2D6. Type of data set: biochemical. To be noted: read-out: CYP2D6 IC50 (mean ± SD).
From the text: as §1

The nature of another data set: in vitro. The settings on record: rat, microsomes, pH 7.4. The procedure: The reaction is started by adding 20 μl of the compound to be tested in 20% AcCN to the microsome/buffer mixture preincubated at 37° C. After 0, 15, 30 and 60 minutes, 200 μl of sample solution is withdrawn and subjected to AcCN precipitation. The isolation of the compounds is effected by adding 200 μl of AcCN that contains the internal standard (1 μM) to 200 μl of sample solution and calibration standard. After shaking for 10 s and centrifugation at 4000 g, an aliquot of the supernatant is subjected to LC-MS/MS. Two controls are included: a positive control with 7-ethoxycoumarin as a reference to verify the microsomal enzyme activity, and a negative control in which microsomes are used that were heated for 25 minutes without a regenerating system, in order to ensure that the loss of substance is actually due to metabolization.
The amount of compound in a sample is expressed as the percent fraction of the compound remaining as compared to time t=0 (100%). The percent fraction is plotted versus time.

T4 sequence (P10635 whole entry): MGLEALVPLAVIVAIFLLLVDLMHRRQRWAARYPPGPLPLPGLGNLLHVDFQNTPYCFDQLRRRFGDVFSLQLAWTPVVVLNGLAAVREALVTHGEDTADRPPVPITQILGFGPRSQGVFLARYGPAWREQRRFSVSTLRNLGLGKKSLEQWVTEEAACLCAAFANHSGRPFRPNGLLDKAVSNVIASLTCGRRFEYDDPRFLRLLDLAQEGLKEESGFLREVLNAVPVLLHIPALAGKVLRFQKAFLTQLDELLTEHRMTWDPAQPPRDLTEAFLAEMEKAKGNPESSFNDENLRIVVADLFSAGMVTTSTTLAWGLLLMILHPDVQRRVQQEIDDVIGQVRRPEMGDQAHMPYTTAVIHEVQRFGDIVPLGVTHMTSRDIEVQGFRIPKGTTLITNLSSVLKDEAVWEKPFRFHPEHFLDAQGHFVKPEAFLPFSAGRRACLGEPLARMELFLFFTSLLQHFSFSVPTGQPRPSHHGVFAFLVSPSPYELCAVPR
T3 sequence (P08684 whole entry): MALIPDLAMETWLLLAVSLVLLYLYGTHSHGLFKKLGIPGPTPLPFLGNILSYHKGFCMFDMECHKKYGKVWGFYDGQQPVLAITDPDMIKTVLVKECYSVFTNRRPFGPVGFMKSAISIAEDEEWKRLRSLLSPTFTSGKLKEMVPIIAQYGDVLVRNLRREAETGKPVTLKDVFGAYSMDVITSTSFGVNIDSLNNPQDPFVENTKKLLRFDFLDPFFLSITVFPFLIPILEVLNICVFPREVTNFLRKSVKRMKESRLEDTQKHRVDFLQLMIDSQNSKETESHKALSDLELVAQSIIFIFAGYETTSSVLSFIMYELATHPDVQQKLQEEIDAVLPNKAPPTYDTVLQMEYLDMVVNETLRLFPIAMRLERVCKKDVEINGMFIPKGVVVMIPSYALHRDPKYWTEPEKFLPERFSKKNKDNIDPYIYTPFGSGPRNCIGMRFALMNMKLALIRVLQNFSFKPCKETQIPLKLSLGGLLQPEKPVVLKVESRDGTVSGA
T1 sequence (P33261 whole entry): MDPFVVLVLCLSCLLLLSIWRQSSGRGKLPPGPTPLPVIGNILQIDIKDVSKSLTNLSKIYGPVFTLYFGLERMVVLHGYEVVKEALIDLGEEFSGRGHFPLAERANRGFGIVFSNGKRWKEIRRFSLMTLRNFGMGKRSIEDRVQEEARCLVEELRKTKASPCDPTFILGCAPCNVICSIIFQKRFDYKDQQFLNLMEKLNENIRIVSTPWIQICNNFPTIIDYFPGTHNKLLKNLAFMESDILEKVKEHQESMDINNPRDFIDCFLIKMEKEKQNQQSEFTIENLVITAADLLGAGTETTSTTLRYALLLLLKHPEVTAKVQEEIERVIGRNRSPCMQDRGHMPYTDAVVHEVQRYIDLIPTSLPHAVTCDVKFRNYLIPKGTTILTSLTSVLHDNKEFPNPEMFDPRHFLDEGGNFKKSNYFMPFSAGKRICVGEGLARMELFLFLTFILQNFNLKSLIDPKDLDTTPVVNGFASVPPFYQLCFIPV

One may read the IC50 as the concentration needed to halve the response being measured. The half-life is the time in which the quantity being followed falls by half. Read a high half-life as slow decline. `Oc1ccc(-c2ccsc2-c2cccc(O)c2)cc1` [Compound 28, 3-[3-(4-Hydroxyphenyl)-2-thienyl]phenol]: the “Permeability (class in words)” value in the data set on CaCo-2 cells is listed as “high”. The concentration for half-maximal inhibition (IC50) at CYP2C19 was 3.37 ± 0.12 µM; against 17β-HSD1, 3400 nM; at CYP3A4, 7.36 ± 0.49 µM; at CYP2D6, 6.99 ± 0.02 µM. At 17β-HSD1, the “Selectivity IC50 (17β-HSD2)/IC50 (17β-HSD1)” value is listed as 0.5. This molecule also came in with a half-life in “in vitro” of 10.6 min.
As for `Oc1cccc(-c2ccc(-c3cccc(O)c3)cc2)c1` [Compound 42, [1,1′,4′,1″]Terphenyl-3,3′-diol], the “Papp [cm/sec ± rel. SD]” value in the data set with CaCo-2 cells is on record as “(12.5 ± 9.0) · 10^−6 cm/sec”. For the same molecule, the “Permeability (class in words)” value in the data set with CaCo-2 cells was “high”. The IC50 was 4.2 ± 0.29 µM at CYP2C19, 110 nM against 17β-HSD1, 2.13 ± 0.13 µM at CYP3A4 and 22 ± 0.29 µM on CYP2D6. The “Selectivity IC50 (17β-HSD2)/IC50 (17β-HSD1)” value at 17β-HSD1 was determined as 21. Also, the “Half life” value in “in vitro” amounted to 22.7 min.
